Consider 6 molecules from patent US7514432B2, “Compounds and methods of treating cell proliferative diseases, retinopathies and arthritis” (Exonhit Therapeutics SA, priority 2003, dated 2009).

Bounds are passed on as bounds.

For one test, the system named is NIH 3T3. Kind of test: Cell viability assay (MTT), NIH 3T3. Conditions: 10% FBS, 6-day treatment, 1% DMSO. It counts as cell-based, mouse. The method, then:
(§1) Table 12: 6-day cell viability assay (MTT) in the presence of 10% Fetal Bovine Serum and 1% DMSO, in HMEC1, HCT116, MDA-MB-231, MCF7 and NIH3T3 cell lines. 3 10^3 to 15 10^3 cells were seeded in 48-well plates in growth medium containing 10% FBS, with or without various concentrations of test compounds. Cell cultures were fed every 3 days with the appropriate media. Cell viability was determined on day 6. Data were analyzed and IC50s were calculated from dose-response curves using GraphPad Prism. Results summarized in the tables are mean±SEM of 1 to 8 independent experiments.
(§2) Table 15: 16-hour cell viability assay (MTT) in the presence of 10% Fetal Bovine Serum and 1% DMSO, in HCT116, MDA-MB-231, NIH3T3, HepG2 and primary hepatocytes. 5 10^4 to 10 10^4 cells were seeded in 48-well plates in growth medium containing 10% FBS, with or without various concentrations of test compounds. Data were analyzed and IC50s were calculated from dose-reponse curves using GraphPad Prism. Results summarized in the tables are mean±SEM of 1 to 2 independent experiments.
(§3) In order to determine a compound's effect on cell viability, microculture tetrazolium assays (MTT) were performed as described by Carmichael et al. (1996) with modifications. Four human tumoral cell lines, namely HCT116 colon adenocarcinoma, H460 lung carcinoma, MCF-7 and MDA-MB-231 breast carcinoma cell lines, DLD1 colorectal adenocarcinoma, HeLa adenocarcinoma, HepG2 hepatocellular carcinoma. 3 immortalized but non tumorigenic cell lines, namely NIH3T3 mouse fibroblasts (American Type Culture Collection) and primary hepatocytes (Biopredic international), cultured according to their recommendations together with Human Microvasculature Endothelial Cell line HMEC1 (National Center for Infectious Diseases). Briefly, cells were seeded in 48-well plates 24 hours before drug addition. Cells were treated with 0 to 200 μM (11 concentrations) of compound solubilized in DMSO, adjusting the final concentration of DMSO to 1% in the well. 16 hours, and three or six days after treatment, 0.5 mg/ml MTT (Sigma) was added to the medium and cells were incubated for 1-5 hours at 37° C. before solubilization of formazan crystals in 100% DMSO. Absorbance was measured using a spectrophotometer at a wavelength of 550 nm. Data was analyzed using the GraphPad Prism software (GraphPad Software, Inc.), and IC50 (dose leading to 50% cell death) was calculated from the dose-response curves.

The test system of a further test is HMEC1. Kind of test: Cell viability assay (MTT), HMEC1. The following applies: 10% FBS; for IC50: MTT, 6-day treatment, 1% DMSO. The test is classed as cell-based, Human. How it is done:
as §1, §3

In a further test the test system is HCT116. Kind of test: Cell viability assay (MTT), HCT116. The test is classed as cell-based, human. Conditions: 1% DMSO. How it is done:
as §1
(§4) Table 13: 6-day cell viability assay (MTT) in the presence of 0.5% Fetal Bovine Serum and 1% DMSO, in HCT116 and MDA-MB-231 cell lines. 7.5 10^4 to 15 10^4 cells were seeded in 48-well plates in growth medium containing 10% FBS, with or without various concentrations of test compounds. Cell cultures were fed every 3 days with the appropriate media. Cell viability was determined on day 6. Data were analyzed and IC50s were calculated from dose-response curves using GraphPad Prism. Results summarized in the tables are mean±SEM of 1 to 2 independent experiments.
(§5) Table 14: 3-day cell viability assay (MTT) in the presence of 10% Fetal Bovine Serum and 1% DMSO, in DLD1, HCT116, MDA-MB-231, MCF7 and HeLa cells. 7.5 10^3 to 1.5 10^4 cells were seeded in 48-well plates in growth medium containing 10% FBS, with or without various concentrations of test compounds. Data were analyzed and IC50s were calculated from dose-response curves using GraphPad Prism. Results summarized in the tables are mean±SEM of 1 to 7 independent experiments.
as §2, §3

Another test deals with NIH3T3. The experiment in a line: Boyden chamber migration assay, NIH3T3. The following applies: FBS as chemoattractant. The test is classed as cell-based, mouse. The method, then: (§6) FIG. 4: Migration assays. (A) Wound healing assay in REF cells. 7.6 10^4 cells were plated on coverslips 48 hours before the experiment. The cells were pre-treated for 30 min. with the compounds, and then a scrape was done using a pipette tip. The scraped coverslips in treatment medium were put under a thermostated microscope coupled to a video camera. Movies were analyzed as described in material and methods, and velocity and total distance covered by the cells were evaluated. Bar graphs represent the mean±SEM of 2 to 4 experiments. (B) Boyden chamber migration assay in HMEC1, NIH3T3 and MDA-MB-231 cells. 5 10^4 to 7.5 10^4 Cells, resuspended in culture medium with or without FBS and with different compound concentrations, were seeded in the upper Boyden blind well on top of 8 μm pore-sized filters. The ability of the cells to migrate through the filter was assayed in the absence or presence of FBS in the lower Boyden chamber. After 16 hours incubation, the medium was removed and replaced with calcein-AM containing medium. After labeling, cells were washed with HBSS and fluorescence was read in a fluorescence plate reader. Fluorescence values were normalized against the fluorescence obtained for the 1% DMSO control. The data plotted are the means±SEM of 2 to 4 independent experiments.
(§7) An essential characteristic of malignant cells is their ability to migrate, invade host tissues and to produce metastases. In order to evaluate the capacity of one compound to affect the ability of tumoral cells to migrate, migration assays were performed using highly invasive tumoral cells MDA-MB-231, endothelial cells HMEC1 or fibroblastic cells NIH3T3. This assay was performed using Falcon HTS Fluoroblock inserts. Culture medium containing Fetal Bovine Serum (FBS; which is used as a chemoattractant) was added to the plate wells and 2 10^4 to 7.5 10^4 cells resuspended in medium without FBS and with 0.1% BSA were added to each insert well. The compound of interest was added to the medium in both the upper and the lower chambers. Plates were incubated for 16 hours at 37° C. Following incubation, the medium was removed from the upper chamber and the entire insert plate was transferred to a second 24-well plate containing 4 μg/ml Calcein-AM™ in medium containing 0.1% BSA. The plates were incubated for one hour at 37° C., rinsed with Hanks Buffered Saline (HBSS). Fluorescence data were collected using Fluoroskan Ascent FL fluorescence plate reader at an excitation wavelength (Ex) of 485 nm and emission wavelength (Em) of 517 nm. Only those labelled cells that passed through the Matrigel layer and the membrane were detected. Data were analyzed using the GraphPad Prism software and IM50s (dose at which 50% inhibition of cell migration is observed) were calculated.

Test [1] deals with MDA-MB-231. The experiment in a line: Cell viability assay (MTT), MDA-MB-231. The test is classed as cell-based, human. The following applies: 10% FBS, 6-day treatment, 1% DMSO, read-out: IC50 μM, MDA-MB-231. The method, then: as §1, §4, §5, §2, §3
A further test concerns DLD1. The experiment in a line: Cell viability assay (MTT), DLD1. The test is classed as cell-based. Conditions: Homo sapiens, DLD-1, 72 h, 10% FBS, 3-day treatment, 1% DMSO. How it is done: as §5, §3
Test [2] deals with MDA-MB-231. Kind of test: Boyden chamber migration assay, MDA-MB-231. Conditions: FBS as chemoattractant; 16 hours. It counts as cell-based, human. How it is done:
as §6, §7

The next test deals with MCF7. The experiment in a line: Cell viability assay (MTT), MCF7. It counts as cell-based. The following applies: Homo sapiens, MCF7, 144 h, 10% FBS, 6-day treatment, 1% DMSO. The method, then:
as §1, §5, §3

The next test deals with HMEC-1 cells. Kind of test: Tubule formation (tubulogenesis) assay on Matrigel. It counts as cell-based, Human. The method, then: FIG. 5: Tubulogenesis assay (number of junctions). 2 10^4 Cells were plated on Matrigel-coated wells as described in the material and methods. Pictures of each well were taken after a 7-hours incubation. The “number of junctions” parameter was quantitated using the AngioSys software and data were analyzed using GraphPad Prism for IT50 calculation. Values represent the mean±SEM of 2 to 30 independent experiments.
The endothelial cell tube formation assay, or tubulogenesis assay, is an in vitro assay that is widely accepted to accurately reflect number of terminal stages of the angiogenic process such as attachment, migration and differentiation into tubular structures. In this model, endothelial cells are cultured on a monolayer of reconstituted basement membrane components (Matrigel) and form, in a few hours, capillary-lilke structure. Therefore, this system is a useful and powerful tool for rapidly screening anti-angiogenic agents by monitoring inhibition of endothelial cells morphogenesis on extracellular matrix.
HMEC-1 cell line is cultured in MCDB-131 medium (Sigma) supplemented with 15% FBS, 10 ng/ml recombinant human epidermal growth factor (Invitrogen) and 1 μg/ml hydrocortisone. Cells are cultured to 70-80% confluence. A 96-well plate was coated with Matrigel® Basement Membrane Matrix (Becton Dickinson). 2 10^4 HMEC-1 cells were seeded into each well. The test or control compounds were diluted in DMSO and added to the coated plate. The plate was subsequently incubated for 6 to 8 hours at 37° C., 5% CO2 atmosphere to allow tubule formation. The cells were then incubated with 1.25 μg/ml Calcein AM for 15 minutes at 37° C., 5% CO2. Pictures of each well were taken using a fluorescent microscope and a digital camera (Nikon Coolpix 990). Images were analysed using AngioSys software (TCS Cellworks) that allows quantification of the total tubule length and of the number of junctions, two parameters representative of tubule formation/disruption. Data was analyzed using the GraphPad Prism software, and IT50s (dose leading to 50% inhibition of tubulogenesis) was calculated.

Where [3] appears, read: Homo sapiens, MDA-MB-231, 144 h.
Setting [4] is: Homo sapiens, HCT-116, 144 h, 10% FBS, 6-day treatment.

`O=c1cc(CN2CCOCC2)occ1OCCCCCSc1ccnc2cc(C(F)(F)F)ccc12` [EHT 7168, 2-Morpholin-4-ylmethyl-5-[5-(7-trifluoromethyl-quinolin-4-ylsulfanyl)-pentyloxy]-4H-pyran-4-one]: the IC50 in the test with NIH 3T3 was 12.7 µM; with HMEC1 it was 25.2 µM; in the test with HCT116 (10% FBS, 6-day treatment) it was 4.9 µM; with NIH3T3 (Mus musculus, NIH3T3, 16 h), 16.4 ± 3.4 µM; with MDA-MB-231 [1], 9.8 µM.

Take `O=c1[nH]cc(F)c(=O)[nH]1` [5FU, 5-FluoroUracile, reference compound]: the 50% inhibitory concentration (IC50) in the test with HCT116 (Homo sapiens, HCT-116, 72 h, 10% FBS, 3-day treatment) was 7.83 µM; with DLD1, 5.44 µM.

Consider `CN1CCN(Cc2cc(=O)c(OCCCCCSc3ccnc4cc(C(F)(F)F)ccc34)co2)CC1` [EHT 7365, 2-(4-Methyl-piperazin-1-ylmethyl)-5-[5-(7-trifluoromethyl-quinolin-4-ylsulfanyl)-pentyloxy]-4H-pyran-4-one], for which the IC50 with NIH 3T3 (Mus musculus, NIH3T3, 144 h) was 6.5 µM; with HMEC1, 8.3 µM; in the test on HCT116 (10% FBS, 6-day treatment) it was 5.4 µM; in the test on NIH3T3 (16 hours), 6.1 ± 1.1 µM; in the test with MDA-MB-231 [2], 3.9 ± 0.8 µM.

Regarding `CCN(CC)C(=O)N1CCN(Cc2cc(=O)c(OCCCCCSc3ccnc4cc(C(F)(F)F)ccc34)co2)CC1` [EHT 5743, 4-((5-(5-(7-(Trifluoromethyl)quinolin-4-ylthio)pentyloxy)-4-oxo-4H-pyran-2-yl)methyl)-N,N-diethylpiperazine-1-carboxamide], the half-inhibitory concentration (IC50) was 2.4 µM with NIH 3T3 (Mus musculus, NIH3T3, 144 h); < 10 µM in the test with HMEC1 (Homo sapiens, HMEC-1, 144 h); 8 µM in the test on HMEC1; 1.2 µM in the test with MCF7; 8.8 µM with MDA-MB-231 [1]; < 9 µM in the test on MDA-MB-231 [1] (setting [3]). Moreover, in the test on HMEC1 (MTT 6 days, compounds most active in HCT116), the “difference of activity in HMEC1 cells as compared to HCT116 cells” value is 20 fold.

With `O=c1cc(CN2CCOCC2)occ1OCc1ccc(CSc2ccnc3cc(C(F)(F)F)ccc23)cc1` [EHT 2218, 5-((4-((7-(Trifluoromethyl)quinolin-4-ylthio)methyl)phenyl)methoxy)-2-(morpholinomethyl)-4H-pyran-4-one], the “fold more active than reference compound CAI in tubulogenesis” value with HMEC-1 cells (HMEC1 on Matrigel) came out at 4 fold. Besides, the 50% inhibitory concentration (IC50) in the test on HMEC-1 cells (Homo sapiens, HMEC-1, HMEC1 on Matrigel, 6 to 8 hours, read-out: IC50, tubulogenesis (number of junctions)) was 30.8 µM; in the test with NIH 3T3 (Mus musculus, NIH3T3, 144 h), 26 µM; with HMEC1 (Homo sapiens, HMEC-1, 144 h), 19.3 µM; with HCT116 (10% FBS, 6-day treatment), 3.7 µM; in the test with HCT116 (Homo sapiens, HCT-116, 144 h, 0.5% FBS, 6-day treatment), 3.3 µM; in the test on HCT116 (setting [4]), < 4 µM. For the same molecule, the half-inhibitory concentration (IC50) is 5 µM with MDA-MB-231 [1] and < 9 µM in the test on MDA-MB-231 [1] (setting [3]).

Consider `Cc1[nH]c(/C=C2\C(=O)Nc3ccccc32)c(C)c1CCC(=O)O` [SU-6668, reference compound], for which, in the test with HMEC-1 cells (VEGF and FGF free conditions), the “potency in tubulogenesis assay” value was “weakly potent”. Further, the IC50 in the test on NIH 3T3 (Mus musculus, NIH3T3, 144 h) came to 35.7 µM; in the test with HMEC1 (Homo sapiens, HMEC-1, 144 h) it was 36 µM; in the test on HCT116 (setting [4]), 18.9 µM; with MDA-MB-231 [1] (setting [3]), 22.5 µM.
